Reference: PubChem BioAssay (NCI)
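Tested at 5 concentrations; 48 h exposure; 96-well plates; endpoints linearly interpolated, else capped at highest concentration. GI50 is the concentration that inhibits growth by half. TGI is the concentration that stops growth completely.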

Experiments:
Experiment in all cases: DTP human tumour cell line panel, 48 h
NCI-H460 lung = system: NCI-H460 lung
SF-295 CNS = system: SF-295 CNS
LOX IMVI melanoma = system: LOX IMVI melanoma
COLO 205 colon = system: COLO 205 colon
SW-620 colon = system: SW-620 colon
KM12 colon = system: KM12 colon
EKVX NSCLC = system: EKVX NSCLC
CAKI-1 renal = system: CAKI-1 renal
MCF7 breast = system: MCF7 breast
MDA-MB-435 = system: MDA-MB-435

SMILES	TGI (NCI-H460 lung) [µM]	TGI (SF-295 CNS) [µM]	TGI (LOX IMVI melanoma) [µM]	TGI (COLO 205 colon) [µM]	TGI (SW-620 colon) [µM]	TGI (KM12 colon) [µM]	TGI (EKVX NSCLC) [µM]	TGI (CAKI-1 renal) [µM]	GI50 (NCI-H460 lung) [µM]	GI50 (MCF7 breast) [µM]	TGI (MCF7 breast) [µM]	GI50 (SF-295 CNS) [µM]	GI50 (LOX IMVI melanoma) [µM]	GI50 (COLO 205 colon) [µM]	GI50 (CAKI-1 renal) [µM]	GI50 (MDA-MB-435) [µM]	TGI (MDA-MB-435) [µM]	GI50 (SW-620 colon) [µM]	GI50 (KM12 colon) [µM]	GI50 (EKVX NSCLC) [µM]
NC1=NN(c2ccccc2)C(=O)C1C(=O)C(=O)NC1C2CC3CC(C2)CC1C3 (stereo not given)	> 100	> 100	> 100	> 100	> 100	> 100	> 100	–	–	–	–	–	–	–	–	–	–	–	–	–
O=S1Cc2ccccc2CS1 (stereo not given)	64.6	> 100	21.3	28.8	27.1	> 100	44.9	31.1	–	–	–	–	–	–	–	–	–	–	–	–
C=CCOC1=C2CC[C@H](O)[C@@]2(C)CCC1=O	> 100	> 100	> 100	> 100	> 100	> 100	> 100	> 100	–	–	–	–	–	–	–	–	–	–	–	–
Clc1cccc(Cn2cc(Cc3cn(Cc4cccc(Cl)c4)c4ccccc34)c3ccccc32)c1	> 100	> 100	> 100	> 100	> 100	> 100	–	> 100	46.5	> 100	> 100	86.2	33.3	> 100	> 100	> 100	> 100	> 100	> 100	–
Cc1ccc(NC(=O)C2C(=O)C(=O)N(c3ccc(C)cc3)C2=O)cc1 (stereo not given)	> 100	> 100	–	> 100	> 100	> 100	> 100	–	–	–	–	–	–	–	–	–	–	–	–	–
COC(=O)C(=C\Sc1ccccc1)/C=C/C(=O)OC(C)(C)C	33.2	34.3	21.7	14	12.4	24.3	24.9	12.1	–	–	–	–	–	–	–	–	–	–	–	–
CCOC(=O)NC(=O)c1cn(CCCCCCCCCCC(=O)N2CCN(CCn3cc(C(=O)NC(=O)OCC)c(=O)[nH]c3=O)CC2)c(=O)[nH]c1=O	> 100	> 100	> 100	> 100	> 100	–	> 100	> 100	–	–	–	–	–	–	–	–	–	–	–	–
O=C(Nc1cccc(-n2cc(-c3ccncc3)c(-c3cc(O)cc(Cl)c3)n2)c1)Nc1ccc(Cl)c(Cl)c1	6.14	4.6	–	3.78	9.97	3.69	–	7.01	2.18	2.8	9.75	1.7	–	1.96	2.21	–	–	3.22	1.5	–
Nc1ccccc1S(=O)c1ccccc1 (stereo not given)	> 100	> 100	> 100	> 100	> 100	> 100	> 100	> 1	–	–	–	–	–	–	–	–	–	–	–	–
CCCCN(CCCC)c1cc(C(=O)CCCCCN)c2ccccc2n1	–	3.85	3.13	–	–	–	23.1	4.38	–	–	–	1.86	1.69	–	1.86	–	–	–	–	4.99
CCOC(=O)/C(=C/c1cc(OC)ccc1OC)CC(=O)O	> 100	> 100	> 100	> 100	> 100	> 100	> 100	> 100	–	–	–	–	–	–	–	–	–	–	–	–
CC1C(=O)CCC1C(Sc1ccccc1)(Sc1ccccc1)Sc1ccccc1 (stereo not given)	> 100	> 100	68.5	> 100	> 100	> 100	> 100	> 100	–	–	–	–	–	–	–	–	–	–	–	–
CCc1ccc(/C(C#N)=C/C=C/c2ccccc2)cc1	> 42.7	10.5	> 100	5.91	> 100	> 100	–	> 100	3.35	1.14	> 100	2.51	10.5	1.83	10.1	0.299	1.16	1.22	1.61	–
NCC(=O)Nc1ccc(-n2nc(C(F)(F)F)cc2-c2ccc3c(ccc4ccccc43)c2)cc1	1.74	2.6	–	2.89	2.16	2.18	–	2.66	0.307	0.578	2.06	1.16	–	1.36	1.17	–	–	0.835	0.922	–
COC(=O)C1=C2C3=C(C(=O)c4ccccc4C3=O)N(Cc3ccccc3)C2(OC(C)=O)C=CC1=O (stereo not given)	> 100	29.3	–	> 100	94	–	79.9	13.2	5.93	3.73	> 100	6.3	–	26.8	1.89	9.52	25.3	17.2	–	23.6
C[CH2][Sn]1([CH2]C)[O]C2C(O)OC(CO)C(O)C2[O]1 (stereo not given)	> 100	> 100	–	> 100	46.4	> 100	–	> 100	> 100	25.4	79.5	> 100	–	35.2	31.1	52.6	> 100	20.2	90.4	–
COc1ccc(Nc2nc(NCc3ccccc3)c3ccccc3n2)cc1	12.6	23.4	3.92	3.33	10.4	13.8	–	14	3.34	1.81	3.63	4.78	1.99	1.86	3.69	1.92	3.85	2.82	3.81	–
C=CC[Se]C(=O)c1ccccc1OC(C)=O	1.84	1.32	3.78	5.01	3.9	2.52	–	5.73	0.36	1.83	4.31	0.332	1.86	2.25	2.35	1.72	3.35	1.87	0.947	–
COC(=O)C1C(=O)O[C@@H](c2ccc(OC)cc2)C1C(=O)OC (stereo not given in full)	–	> 100	> 100	> 100	> 100	> 100	> 100	> 100	–	–	–	–	–	–	–	–	–	–	–	–
